The target in data set [1] is T1, ALDHTt515 (Thermus thermophilus, UniProt Q72KD3).
T1 construct: gene TT_C0513; C-terminal truncation lacking the last 15 of 530 residues; tetramer; not the natural 515-residue HB8 enzyme
Description: fluorescence of NADH formation. The class given is biochemical. The note with it: 0.4 mM NAD+, 1 mM hexanal, pH 8.0, 50 °C; turnover only.

In a further data set the target is T2, ALDHTt508 (Thermus thermophilus, UniProt Q72KD3).
T2 construct: gene TT_C0513; C-terminal truncation after residue 508 of 530; tetramer
Kind of data set: fluorescence of NADH formation. The class given is biochemical. The note with it: 0.4 mM NAD+, 1 mM hexanal, pH 8.0, 50 °C; turnover only.

Data set [2] addresses T1, ALDHTt515. Kind of data set: X-ray crystal structure. The note with it: co-crystallised with 1 mM NADP+; cofactor binding cleft.
Data set [3] addresses T3, ALDHTt530 (recombinant wild type ALDHTt) (Thermus thermophilus, UniProt Q72KD3).
T3 construct: gene TT_C0513; full length, 530 residues; homotetramer; 6FJX is the native protein
T3 sequence (Q72KD3 1-530): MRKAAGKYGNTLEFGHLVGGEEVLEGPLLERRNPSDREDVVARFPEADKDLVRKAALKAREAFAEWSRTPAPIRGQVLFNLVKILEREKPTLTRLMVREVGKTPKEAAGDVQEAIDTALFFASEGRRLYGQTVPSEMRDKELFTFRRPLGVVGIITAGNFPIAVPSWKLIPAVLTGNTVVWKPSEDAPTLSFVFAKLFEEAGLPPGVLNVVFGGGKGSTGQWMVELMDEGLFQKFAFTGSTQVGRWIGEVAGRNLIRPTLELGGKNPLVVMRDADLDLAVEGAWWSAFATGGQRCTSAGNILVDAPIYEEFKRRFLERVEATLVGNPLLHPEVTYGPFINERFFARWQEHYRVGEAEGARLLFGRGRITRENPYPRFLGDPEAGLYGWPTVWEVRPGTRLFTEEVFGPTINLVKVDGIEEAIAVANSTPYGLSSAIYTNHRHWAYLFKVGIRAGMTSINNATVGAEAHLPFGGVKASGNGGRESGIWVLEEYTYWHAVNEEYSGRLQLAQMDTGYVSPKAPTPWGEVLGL
Description: X-ray crystal structure. The note with it: crystals with 50 mM propanal; substrate entry channel, anchor loop. The class given is binding.

In data set [4] the target is native aldehyde dehydrogenase from Thermus thermophilus (ALDHTt native) (Thermus thermophilus). Kind of data set: crystal structure; sitting-drop vapor diffusion at 20 °C against 50 mM MOPS pH 7.5 and 1.2 M ammonium sulfate; space group P4(1)2(1)2, two copies in the asymmetric unit, tetramer by NCS and crystallographic symmetry; recombinant proteins in the same conditions (ALDHTt515 with 1 mM NADP+, ALDHTt530 with 50 mM propanal).

Substrate in data set [5]: CCC=O
Description: fluorescence of NADH formation. The data set is classed as biochemical, Thermus thermophilus. The note with it: 25 °C, NAD+ as cofactor, pH 8.0 (standard assay).

As for `NC(=O)c1ccc[n+]([C@@H]2O[C@H](COP(=O)(O)OP(=O)(O)OC[C@H]3O[C@@H](n4cnc5c(N)ncnc54)[C@H](O)[C@@H]3O)[C@@H](O)[C@H]2O)c1` [NAD^+], the “fluorescence of NADH formation” value on ALDHTt515 [1] is “both truncated mutants ALDHTt508 and ALDHTt515 were slightly more active”; on ALDHTt508, “both truncated mutants ALDHTt508 and ALDHTt515 were slightly more active”.
`NC(=O)c1ccc[n+]([C@@H]2O[C@H](COP(=O)(O)OP(=O)(O)OC[C@H]3O[C@@H](n4cnc5c(N)ncnc54)[C@H](OP(=O)(O)O)[C@@H]3O)[C@@H](O)[C@H]2O)c1` [NADP^+]: the X-ray crystal structure result at ALDHTt515 [2] is “The co-crystal structure of ALDHTt515 was solved with NADP^+ bound”.
As for `CCC(=O)O` [propanoic acid], the X-ray crystal structure result in data set [3] is “yielded a structure with a product molecule, propanoic acid, in monomer A and B”.
In the case of “native aldehyde dehydrogenase from Thermus thermophilus (ALDHTt native) (enzyme)”, the stoichiometry N (in general, the number of molecules, sites or subunits per partner or assembly) in data set [4] amounted to 4.

B1: ALDHTt530 (recombinant wild type ALDHTt) (Thermus thermophilus HB27) (protein)
chain: T3 sequence (Q72KD3 1-530)
notes: full length, 530 residues; homotetramer; 6FJX is the native protein
For the molecule B1, the Michaelis-Menten constant (Km) (usually the substrate concentration at which the rate is half of its maximum) in data set [5] stood at 2760 µM.

The values above are taken from publication PMC6127216, “The quaternary structure of Thermus thermophilus aldehyde dehydrogenase is stabilized by an evolutionary distinct C-terminal arm extension” (Scientific Reports, 2018).
